Legend:
MhIHL (Mh33H4-5540) [1] = molecular target: T1, MhIHL (Mh33H4-5540) (Microbacterium hydrocarbonoxydans, UniProt A0A0K0XHU0, C111A); conditions: inactive variant; crystal soaked in 500 mM ligand for 10 min; active site
MhIHL (Mh33H4-5540) [2] = molecular target: T1, MhIHL (Mh33H4-5540); conditions: inactive variant; crystal soaked in 250 mM ligand for 1.5 h; active site

| SMILES | X-ray crystal structure, 1.79 Å (MhIHL (Mh33H4-5540) [1]) | X-ray crystal structure, 1.99 Å (MhIHL (Mh33H4-5540) [2]) |
| --- | --- | --- |
| O=C1N[C@@H]2C=C[C@H]1C2 [(+)-γ-lactam, 2-Azabicyclo[2.2.1]hept-5-en-3-one] | The final MhIHL–(+)-γ-lactam complex crystals were obtained by soaking the crystal | – |
| O=C1N[C@H]2C=C[C@@H]1C2 [(−)-γ-lactam, 2-Azabicyclo[2.2.1]hept-5-en-3-one] | – | The final crystals of MhIHL–(−)-γ-lactam complex were obtained by soaking the crystal |
